Experimental data taken from PubChem BioAssay AID2060510 (Molecular Pharmacology Branch, DTP, NCI, 2025).

Tested on: 439559-082-T-J2-PDC spheroids viability
Assay: Anticancer human tumor 439559-082-T-J2-PDC patient-derived colon adenocarcinoma cell line growth inhibition [GQUAD]
Conditions: for IC50: curve of first compound; for viability, T/C: stronger effect = lower value; active means viability on the fitted dose curve at most 10% of control; inactive means the rest
Text: DNA G-quadruplex Stabilizer Agents in Combinations in Complex Spheroids
A high-throughput screen of multi-cell type tumor spheroids was designed to identify active combinations of DNA G-quadruplex stabilizer agents and targeted small molecules. Complex spheroids include a stromal component modeled by human endothelial cells (HUVEC) and fibroblasts modeled by human mesenchymal stem cells (MSCs). The concentration ranges selected for each drug and investigational agent were based upon clinically achievable concentrations if the clinical Cmax of the agent was known.
Compounds. The drugs and investigational agents: pidnarulex (CX-5461; NSC782164), APTO-253 (NSC789042), BRACO-19 (NSC847499), peposertib (NSC802822), ceralasertib (NSC780249), elimusertib (NSC800525), camonsertib (NSC841442), AZD-1390 (NSC803789), olaparib (NSC753686), talazoparib (NSC767125), ART-558 (NSC835418), sotorasib (NSC818433), MRTX-1133 (NSC836407), SN-38 (NSC673596), topotecan (NSC609699), etoposide (NSC141540), doxorubicin (NSC123127), gemcitabine (NSC613327), 5-fluorouracil (NSC19893), paclitaxel (NSC125973), vemurafenib (NSC761431), panobinostat (NSC761190), R-306465 (JNJ-16241199; NSC773264), adavosertib (NSC754352), TP-3654 (NSC805149), carboplatin (NSC241240), KSQ-4279 (NSC840948), and staurosporine (NSC755774) were obtained from the National Cancer Institute (NCI) Developmental Therapeutics Program Chemical Repository (34). The FDA-approved anticancer drug set is available from the NCI Developmental Therapeutics Program. […] The stock solutions were prepared in dimethyl sulfoxide (DMSO, Sigma-Aldrich, St. Louis, MO, cat. D2650) at 800-fold the tested concentration and stored at -70 degrees C prior to their use. All drugs and investigational agents were tested over a range starting from a high concentration at or near the clinical Cmax and decreasing in half-log increments. If the clinical Cmax for an agent had not been determined, the highest concentration tested was 10 microM.
2.3 Cell Culture. All cells were maintained in an incubator at 37 degrees C and 5% CO2 with 95% humidity. The PDC lines were cultured according to standard operating procedures established by the NCI PDMR. All PDCs were thawed and cultured in Matrigel-coated flasks prepared with a working solution of 1X Ham's F-12 nutrient mix, without supplementation (Invitrogen, cat. 11765054), 100 U/mL penicillin-streptomycin (Invitrogen, cat. 15140122), and 2.5% Matrigel (Corning Inc., cat. 354248) for the first three passages. The 857933-349-R-J2-PDC line was cultured in 6C/Colon 1B media, which includes advanced DMEM/F-12 (Thermo Fisher Scientific, cat. 12634028), 10 mM HEPES (Thermo Fisher Scientific, cat. 15630080), 1X GlutaMAX supplement (Thermo Fisher Scientific, cat. 35050061), 0.1 mg/mL primocin (InvivoGen, cat. ant-pm-2), 10% defined fetal bovine serum, heat inactivated (HyClone Laboratories Inc., cat. SH30070.03HI), 50% L-WRN conditioned media (ATCC, cat. CRL-3276), 1.25 mM N-Acetyl-L-cysteine (Sigma-Aldrich, cat. A9165), 10 mM nicotinamide (Sigma-Aldrich, cat. N0636), 1X B-27 supplement (Thermo Fisher Scientific, cat. 17504044), 1X N-2 supplement (Thermo Fisher Scientific, cat. 17502048), 10 microM Y-27632 dihydrochloride (Tocris Bioscience, cat. 1254), and 50 ng/mL human EGF recombinant protein (Thermo Fisher Scientific, cat. PHG0311). The 485176-168-R4-J1-PDC line was cultured in Panc media, which includes all 6C/Colon 1B media components plus 100 ng/mL human FGF-10 (Thermo Fisher Scientific, cat. 100-26), 500 nM SB-431542 (Selleckchem, cat. S1067), and gastrin (Tocris, cat. 3006).
[…]

[1] = second compound 0.0316 µM, first compound 0.0316 µM
[2] = second compound 0.0316 µM, first compound 0.1 µM
[3] = second compound 0.0316 µM, first compound 0.316 µM
[4] = second compound 0.0316 µM, first compound 1 µM
[5] = second compound 0.0316 µM, first compound 3.16 µM
[6] = second compound 0.0316 µM, first compound 10 µM
[7] = second compound 0.1 µM, first compound 0.0316 µM
[8] = second compound 0.1 µM, first compound 0.1 µM
[9] = second compound 0.1 µM, first compound 0.316 µM
[10] = second compound 0.1 µM, first compound 1 µM
[11] = second compound 0.1 µM, first compound 3.16 µM
[12] = second compound 0.1 µM, first compound 10 µM
[13] = second compound 0.316 µM, first compound 0.0316 µM
[14] = second compound 0.316 µM, first compound 0.1 µM
[15] = second compound 0.316 µM, first compound 0.316 µM
[16] = second compound 0.316 µM, first compound 1 µM
[17] = second compound 0.316 µM, first compound 3.16 µM
[18] = second compound 0.316 µM, first compound 10 µM
[19] = second compound 1 µM, first compound 0.0316 µM
[20] = second compound 1 µM, first compound 0.1 µM
[21] = second compound 1 µM, first compound 0.316 µM
[22] = second compound 1 µM, first compound 1 µM
[23] = second compound 1 µM, first compound 3.16 µM
[24] = second compound 1 µM, first compound 10 µM
[25] = second compound 3.16 µM, first compound 0.0316 µM
[26] = second compound 3.16 µM, first compound 0.1 µM
[27] = second compound 3.16 µM, first compound 0.316 µM
[28] = second compound 3.16 µM, first compound 1 µM
[29] = second compound 3.16 µM, first compound 3.16 µM
[30] = second compound 3.16 µM, first compound 10 µM
[31] = second compound 10 µM, first compound 0.0316 µM
[32] = second compound 10 µM, first compound 0.1 µM
[33] = second compound 10 µM, first compound 0.316 µM
[34] = second compound 10 µM, first compound 1 µM
[35] = second compound 10 µM, first compound 3.16 µM
[36] = second compound 10 µM, first compound 10 µM
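Further: spheroids exposed to the agents for 7 days before readout.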
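Wherever viability, T/C is given: percent of luminescence signal in DMSO vehicle wells taken as 100% viability.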

CC(C)n1c(=O)n(C)c2cnc3cc(F)c(-c4ccc(OCCCN5CCCCC5)nc4)cc3c21 + CN(C)c1ccc(Nc2c3ccc(NC(=O)CCN4CCCC4)cc3nc3cc(NC(=O)CCN4CCCC4)ccc23)cc1
inactive: viability, T/C [1] 108% | viability, T/C [2] 98.2% | viability, T/C [3] 118% | viability, T/C [4] 116% | viability, T/C [5] 122% | viability, T/C [6] 91.8% | viability, T/C [7] 105% | viability, T/C [8] 112% | viability, T/C [9] 115% | viability, T/C [10] 119% | viability, T/C [11] 113% | viability, T/C [12] 91.9% | viability, T/C [13] 94.5% | viability, T/C [14] 113% | viability, T/C [15] 115% | viability, T/C [16] 122% | viability, T/C [17] 117% | viability, T/C [18] 100% | viability, T/C [19] 101% | viability, T/C [20] 105% | viability, T/C [21] 111% | viability, T/C [22] 113% | viability, T/C [23] 109% | viability, T/C [24] 99.6% | viability, T/C [25] 105% | viability, T/C [26] 113% | viability, T/C [27] 121% | viability, T/C [28] 108% | viability, T/C [29] 117% | viability, T/C [30] 83.5% | viability, T/C [31] 100% | viability, T/C [32] 92% | viability, T/C [33] 99% | viability, T/C [34] 112% | viability, T/C [35] 112% | viability, T/C [36] 59.4%
> 10000 nM: IC50 (second compound 0.0316 µM) | IC50 (second compound 0.1 µM) | IC50 (second compound 0.316 µM) | IC50 (second compound 1 µM) | IC50 (second compound 3.16 µM) | IC50 (second compound 10 µM)

CC1COCCN1c1cc(C2(O)CC3CCC(C2)O3)c2cnn(-c3ccn[nH]3)c2n1 (centres undefined) + CN(C)c1ccc(Nc2c3ccc(NC(=O)CCN4CCCC4)cc3nc3cc(NC(=O)CCN4CCCC4)ccc23)cc1
1160 nM: IC50 (second compound 1 µM)
inactive: viability, T/C [1] 96.5% | viability, T/C [2] 72.1% | viability, T/C [3] 68.3% | viability, T/C [4] 49.8% | viability, T/C [5] 35.8% | viability, T/C [6] 25.6% | viability, T/C [7] 103% | viability, T/C [8] 78.2% | viability, T/C [9] 74.1% | viability, T/C [10] 52.6% | viability, T/C [11] 33.9% | viability, T/C [12] 30.4% | viability, T/C [13] 94.8% | viability, T/C [14] 82.3% | viability, T/C [15] 64.4% | viability, T/C [16] 50.3% | viability, T/C [17] 37% | viability, T/C [18] 30.3% | viability, T/C [19] 80.6% | viability, T/C [20] 86.2% | viability, T/C [21] 75.7% | viability, T/C [22] 52% | viability, T/C [23] 36.6% | viability, T/C [24] 32.4% | viability, T/C [25] 85.6% | viability, T/C [26] 87.5% | viability, T/C [27] 75.5% | viability, T/C [28] 49% | viability, T/C [29] 39.9% | viability, T/C [30] 28.9% | viability, T/C [31] 94.9% | viability, T/C [32] 76.9% | viability, T/C [33] 79.1% | viability, T/C [34] 46% | viability, T/C [35] 35% | viability, T/C [36] 25.4%
1200 nM: IC50 (second compound 0.1 µM)
979 nM: IC50 (second compound 0.0316 µM)
999 nM: IC50 (second compound 10 µM)
959 nM: IC50 (second compound 0.316 µM)
1080 nM: IC50 (second compound 3.16 µM)
